The data set in a line: Solubility properties of the water soluble polar solvents (nitrapyrin solubility, water solubility). As to conditions: water solubility of the polar solvent.

Structures are written as SMILES.

`COC(C)COC(C)CO` (stereo not shown) [Dowanol DPM, dipropylene glycol monomethyl ether]: the water solubility was 100%.

For the origin of these results see patent US20180049438A1, “NITRIFICATION INHIBITOR COMPOSITIONS AND METHODS FOR PREPARING THE SAME” (DOW AGROSCIENCES LLC, priority 2014, published 2018).
